This is an account of results in patent US9102752B2, “Peptide vaccine for prevention and immunotherapy of dementia of the Alzheimer's type” (United Biomedical, Inc., priority 2013, dated 2015).

In test [1] the test system is anti-Aβ antibodies in macaque antisera. In words: Specificity analysis (10-mer peptide ELISA) of antisera from Cynomolgus macaques. Type of test: binding. On the technique in general: ELISA stands for enzyme-linked immunosorbent assay.
In test [2] the test system is anti-Aβ antibodies in sera of vaccinated patients. The experiment in a line: Epitope mapping, competitive binding inhibition EIA with patient sera (10-mer peptides, IC50). The settings on record: for Epitope mapping, fine specificity analysis, serum of subject P101: serum 16 wpi of vaccinated patient P101; for Epitope mapping, fine specificity analysis, serum of subject P102: serum 16 wpi of vaccinated patient P102; for Epitope mapping, fine specificity analysis, serum of subject P103: serum 16 wpi of vaccinated patient P103; for Epitope mapping, fine specificity analysis, serum of subject P104: serum 16 wpi of vaccinated patient P104; for Epitope mapping, fine specificity analysis, serum of subject P105: serum 16 wpi of vaccinated patient P105; for Epitope mapping, fine specificity analysis, serum of subject P106: serum 16 wpi of vaccinated patient P106; for Epitope mapping, fine specificity analysis, serum of subject P107: serum 16 wpi of vaccinated patient P107; for Epitope mapping, fine specificity analysis, serum of subject P108: serum 16 wpi of vaccinated patient P108; for Epitope mapping, fine specificity analysis, serum of subject P109: serum 16 wpi of vaccinated patient P109; for Epitope mapping, fine specificity analysis, serum of subject P201: serum 16 wpi of vaccinated patient P201; for Epitope mapping, fine specificity analysis, serum of subject P202: serum 16 wpi of vaccinated patient P202; for Epitope mapping, fine specificity analysis, serum of subject P203: serum 16 wpi of vaccinated patient P203; for Epitope mapping, fine specificity analysis, serum of subject P204: serum 16 wpi of vaccinated patient P204; for Epitope mapping, fine specificity analysis, serum of subject P205: serum 16 wpi of vaccinated patient P205; for Epitope mapping, fine specificity analysis, serum of subject P206: serum 16 wpi of vaccinated patient P206; for Epitope mapping, fine specificity analysis, serum of subject P207: serum 16 wpi of vaccinated patient P207; for Epitope mapping, fine specificity analysis, serum of subject P208: serum 16 wpi of vaccinated patient P208; for Epitope mapping, fine specificity analysis, serum of subject P209: serum 16 wpi of vaccinated patient P209; for Epitope mapping, fine specificity analysis, serum of subject P210: serum 16 wpi of vaccinated patient P210. More on the design: species or system human; Epitope mapping, fine specificity analysis, serum of subject P210: unit not given here.

Where [3] appears, read: antisera of macaques given UBI AD Vaccine 150 μg/dose, 9 WPI.
The mark [4] stands for this setting: antisera of macaques given UBI AD Vaccine 150 μg/dose, 15 WPI.
Setting [5] is: antisera of macaques given UBI AD Vaccine 750 μg/dose, 9 WPI.
Where [6] appears, read: antisera of macaques given UBI AD Vaccine 750 μg/dose, 15 WPI.

With “8 (TEEISEVKMD; PEPTIDE (1)..(10) Abeta -9-1 or APP 770(T663-D672); listed as Homo sapiens) [compound 8]”, in test [1] (setting [3]), the “Reactivity of antisera with peptide (specificity analysis ELISA)” value (“Reactivity of antisera with peptide” below) is on record as 0.075. In addition, the “Reactivity of antisera with peptide” value in test [1] (setting [4]) worked out at 0.084. In addition, the “Reactivity of antisera with peptide” value in test [1] (setting [5]) is 0.061. For the same substance, the “Reactivity of antisera with peptide” value in test [1] (setting [6]) is on record as 0.078. In test [2], the “Epitope mapping, fine specificity analysis, serum of subject P101” value came to 0; the “Epitope mapping, fine specificity analysis, serum of subject P102” value was determined as 0; the “Epitope mapping, fine specificity analysis, serum of subject P103” value was 0; the “Epitope mapping, fine specificity analysis, serum of subject P104” value worked out at 0. Besides, in test [2], the “Epitope mapping, fine specificity analysis, serum of subject P105” value worked out at 0; the “Epitope mapping, fine specificity analysis, serum of subject P106” value is reported as 0; the “Epitope mapping, fine specificity analysis, serum of subject P107” value was found to be 0; the “Epitope mapping, fine specificity analysis, serum of subject P108” value turned out to be 0. Also, in test [2], the “Epitope mapping, fine specificity analysis, serum of subject P109” value is on record as 0; the “Epitope mapping, fine specificity analysis, serum of subject P201” value was found to be 0; the “Epitope mapping, fine specificity analysis, serum of subject P202” value was found to be 0; the “Epitope mapping, fine specificity analysis, serum of subject P203” value is listed as 0. Further, in test [2], the “Epitope mapping, fine specificity analysis, serum of subject P204” value was 0; the “Epitope mapping, fine specificity analysis, serum of subject P205” value was found to be 0; the “Epitope mapping, fine specificity analysis, serum of subject P206” value is given as 0; the “Epitope mapping, fine specificity analysis, serum of subject P207” value was 0. In addition, in test [2], the “Epitope mapping, fine specificity analysis, serum of subject P208” value is listed as 0; the “Epitope mapping, fine specificity analysis, serum of subject P209” value was 0; the “Epitope mapping, fine specificity analysis, serum of subject P210” value was determined as 0.

In the case of “9 (EEISEVKMDA; PEPTIDE (1)..(10) Abeta -8-2 or APP 770(E664-A673); listed as Homo sapiens) [compound 9]”, the “Reactivity of antisera with peptide” value in test [1] (setting [3]) was 0.082. In addition, the “Reactivity of antisera with peptide” value in test [1] (setting [4]) is on record as 0.092. In addition, the “Reactivity of antisera with peptide” value in test [1] (setting [5]) stood at 0.081. Moreover, the “Reactivity of antisera with peptide” value in test [1] (setting [6]) came to 0.076. Also, in test [2], the “Epitope mapping, fine specificity analysis, serum of subject P101” value is listed as 0; the “Epitope mapping, fine specificity analysis, serum of subject P102” value was 0; the “Epitope mapping, fine specificity analysis, serum of subject P103” value was 0; the “Epitope mapping, fine specificity analysis, serum of subject P104” value worked out at 0. Also, in test [2], the “Epitope mapping, fine specificity analysis, serum of subject P105” value came to 0; the “Epitope mapping, fine specificity analysis, serum of subject P106” value is 0; the “Epitope mapping, fine specificity analysis, serum of subject P107” value is 0; the “Epitope mapping, fine specificity analysis, serum of subject P108” value came to 0. In test [2], the “Epitope mapping, fine specificity analysis, serum of subject P109” value is recorded as 0; the “Epitope mapping, fine specificity analysis, serum of subject P201” value was found to be 0; the “Epitope mapping, fine specificity analysis, serum of subject P202” value was found to be 0; the “Epitope mapping, fine specificity analysis, serum of subject P203” value stood at 0. In addition, in test [2], the “Epitope mapping, fine specificity analysis, serum of subject P204” value turned out to be 0; the “Epitope mapping, fine specificity analysis, serum of subject P205” value was found to be 0; the “Epitope mapping, fine specificity analysis, serum of subject P206” value is reported as 0; the “Epitope mapping, fine specificity analysis, serum of subject P207” value turned out to be 0. Also, in test [2], the “Epitope mapping, fine specificity analysis, serum of subject P208” value was found to be 0; the “Epitope mapping, fine specificity analysis, serum of subject P209” value came out at 0; the “Epitope mapping, fine specificity analysis, serum of subject P210” value came out at 0.
